Laboratory results as given in patent US7745428B2, “Imidazo[1,2-A]pyridine having anti-cell-proliferation activity” (AstraZeneca AB, priority 2005, dated 2010).

Target: T1, CDK2/Cyclin E (Homo sapiens, UniProt P24941)
T1 construct: The open reading frames of CDK2 and Cyclin E were isolated; made in house; host or cells: Sf21 (Spodoptera frugiperda) insect cells, baculovirus co-infection; substrate in E. coli BL21 (DE3) pLysS
Test: in vitro kinase assay (Scintillation Proximity Assay), CDK2/Cyclin E, GST-Rb substrate
Type: biochemical
Conditions: in-vitro SPA kinase assay, 0.2 μM ATP, room temperature, 60 minutes; read-out: CDK2 inhibitory activity (CDK2 enzyme)
Procedure: The compounds were tested in an in vitro kinase assay in 96 well format using Scintillation Proximity Assay (SPA—obtained from Amersham) for measuring incorporation of [γ-33-P]-Adenosine Triphosphate into a test substrate (GST-Retinoblastoma protein; GST-Rb). In each well was placed the compound to be tested (diluted in DMSO and water to correct concentrations) and in control wells either roscovitine as an inhibitor control or DMSO as a […] control.
Approximately 0.2 μl of CDK2/Cyclin E partially-purified enzyme (amount dependent on enzyme activity) diluted in 25 μl incubation buffer was added to each well then 20 μl of GST-Rb/ATP/ATP33 mixture (containing 0.5 μg GST-Rb and 0.2 μM ATP and 0.14 μCi[γ-33-P]-Adenosine Triphosphate in incubation buffer), and the resulting mixture shaken gently, then incubated at room temperature for 60 minutes. […]
The plates were sealed with Topseal-S plate sealers, left for two hours then spun at 2500 rpm, 1124×g., for 5 minutes. The plates were read on a Topcount for 30 seconds per well. […]
The open reading frames of CDK2 and Cyclin E were isolated by reverse transcriptase-PCR using HeLa cell and activated T cell mRNA as a template and cloned into the insect expression vector pVL1393 (obtained from Invitrogen 1995 catalogue number: V1392-20). […]

- IC50: 90 nM
SMILES: CN1CCN(C(=O)c2ccc(Nc3nccc(-c4cnc5ccccn45)n3)cc2)CC1 [Example 2, [4-(4-Imidazo[1,2-a]pyridin-3-yl-pyrimidin-2-ylamino)-phenyl]-(4-methyl-piperazin-1-yl)-methanone]
